# Assay results: article PMC13185115, “Photovermellogens: Minimalistic Pyridinium-Based Acylhydrazones with Photoswitchable Basicity for Operation in Aqueous Media” (The Journal of Organic Chemistry, 2026)
# Test: Thermal Z-PH+ to E-PH+ back-isomerization kinetics
# Assay type: physicochemical
# Description: Photoisomerization studies were subsequently carried out in acidic medium (pH = pK a – 2) in order to assess the photoresponse of the protonated species. Under these conditions, the anticipated photoisomerization of the thermally stable E-P a–dH^+ species was investigated by UV–vis absorption spectroscopy under irradiation at 254 nm. […] It is noteworthy that the irradiation wavelength can be extended to 365 nm, yielding virtually the same observations as for 254 nm irradiation (see footnotes of Table ). Irradiation also produced clear NMR spectral changes that support the occurrence of the E→Z isomerization. In essence, the signals Hf–h of the phenyl moiety were only slightly affected, whereas those of the pyridinium and acylhydrazone fragments shifted markedly, consistent with the formation of an intramolecular hydrogen bond in the Z-P a–cH^+ species. The reverse Z→E transformation of the protonated forms P a–cH^+ was also achieved upon irradiation at λ > 420 nm, giving lower quantum yields and less favorable PSDs (Figures S145–S147, S149–154, S1).
# 5.5. Z-P a-cH+→E-P a-cH+ thermal back-isomerization kinetics.
# Figure S155. Absorption spectrum variation during 48h at room temperature from the PSS reached for P aH·Cl (7µM, pH 6, Red) state during 48h. E-isomer absorption spectrum in green.
# Even though the kinetics has not been fully completed, it can be observed that it occurs much more slowly than photochemical processes.
# To obtain an estimation of P aH·Cl Z→E thermal half-live at room temperature, the Z →E thermal reversion kinetics were monitored starting from the 254nm photostationary state at different temperatures (47, 55 and 64 °C). By tracking the absorbance changes at 420 nm, an Arrhenius analysis was performed, allowing the determination of the activation energy (EA) and the estimation of the thermal half-life at 25 °C.
smiles,measurement,setting,value
C[n+]1ccc(NN=CC(=O)c2ccccc2)c2ccccc21 [P bH^+],"k Z→E unimolecular rate constant, thermal back-isomerization","heating to 70 °C, pD 5",9.8 10^–4 s^–1
O=C(C=NNc1cc[n+](-c2ccccc2)cc1)c1ccccc1 [P cH^+],"k Z→E unimolecular rate constant, thermal back-isomerization","heating to 70 °C, pD 6",2.4 10^–4 s^–1
C[n+]1ccc(NN=CC(=O)c2ccccc2)cc1 [P aH^+],"k Z→E unimolecular rate constant, thermal back-isomerization","heating to 60 °C, pD 6",4.1 10^–4 s^–1
